Converted amounts (≈) assume the structure as drawn. Values belong to the compound of their own block, whether it stands above or below them.
Assays:
Plasmodium vivax = test: Antimalarial activity against Plasmodium vivax infected in human HepG2-A16 cells assessed as reduction of trophozoites level; type: functional; parameters: scale not given: the % may be the effect or the level left
Plasmodium falciparum [1] = test: Antimalarial activity against chloroquine-resistant Plasmodium falciparum W2; type: functional, organism-based
Plasmodium falciparum [2] = test: Antimalarial activity against chloroquine-susceptible Plasmodium falciparum D6; type: functional, organism-based
Plasmodium falciparum [3] = test: Antimalarial activity against Plasmodium falciparum infected in perorally dosed mice (Mus musculus) administered for 4 days; type: functional; settings: po, 96 h
Plasmodium falciparum [4] = test: Antimalarial activity against Plasmodium falciparum infected in intravenously dosed mice (Mus musculus) administered for 4 days; type: functional; settings: iv, 96 h
Plasmodium falciparum [5] = test: Antimalarial activity against chloroquine-resistant Plasmodium falciparum FCB1; type: functional, organism-based; settings: FcB1/Columbia
[6] = target: T1, Enoyl-acyl-carrier protein reductase (Plasmodium falciparum, UniProt Q965D5); test: (§1) Inhibition of Plasmodium falciparum Fabl
T1 sequence (Q965D5 whole entry): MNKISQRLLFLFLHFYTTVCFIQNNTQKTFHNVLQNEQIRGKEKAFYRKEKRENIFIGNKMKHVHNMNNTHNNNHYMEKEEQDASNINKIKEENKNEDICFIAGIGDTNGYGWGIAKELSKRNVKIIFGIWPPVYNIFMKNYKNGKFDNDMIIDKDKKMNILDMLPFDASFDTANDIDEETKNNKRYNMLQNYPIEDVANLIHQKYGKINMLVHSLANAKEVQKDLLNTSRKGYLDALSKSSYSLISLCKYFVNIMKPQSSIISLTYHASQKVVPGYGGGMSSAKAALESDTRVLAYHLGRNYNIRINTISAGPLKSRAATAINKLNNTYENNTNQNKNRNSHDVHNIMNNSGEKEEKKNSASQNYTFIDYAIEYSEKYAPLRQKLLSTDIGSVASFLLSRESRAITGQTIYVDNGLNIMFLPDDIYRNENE

[7] = (§2) Inhibition of Plasmodium falciparum FabG
Plasmodium falciparum [8] = test: Antimalarial activity against multidrug-resistant Plasmodium falciparum K1 infected in erythrocytes; type: functional, organism-based
Plasmodium falciparum [9] = test: Antimalarial activity against drug-susceptible Plasmodium falciparum NF54 infected in erythrocytes; type: functional, organism-based
Plasmodium berghei = test: Antiplasmodial activity against chloroquine-sensitive Plasmodium berghei; type: functional, organism-based
[10] = target: T2, Enoyl-acyl-carrier protein reductase (Plasmodium falciparum) (UniProt Q965D5); test: as §1
T2 sequence (whole entry): T1 sequence (Q965D5 whole entry)

Plasmodium falciparum [11] = test: as §2; settings: concentration not given here
Plasmodium falciparum [12] = test: Antimalarial activity against chloroquine-resistant Plasmodium falciparum; type: functional, organism-based
Plasmodium falciparum [13] = test: Antimalarial activity against chloroquine-sensitive Plasmodium falciparum; type: functional, organism-based
Plasmodium falciparum [14] = test: Antimalarial activity against Plasmodium falciparum FCA 20; type: functional, organism-based
Plasmodium falciparum [15] = test: Antimalarial activity against Plasmodium falciparum FCB1-R; type: functional, organism-based
Plasmodium falciparum [16] = test: Antimalarial activity against Plasmodium falciparum W2; type: functional, organism-based
Plasmodium falciparum [17] = test: Antimalarial activity against Plasmodium falciparum D6; type: functional, organism-based
Plasmodium falciparum [18] = test: Antimalarial activity against Plasmodium falciparum 3D7; type: functional, organism-based
Plasmodium falciparum [19] = test: Antimalarial activity against Plasmodium falciparum after 32 hrs; type: functional, organism-based
Plasmodium falciparum [20] = test: Antimalarial activity against Plasmodium falciparum after 72 hrs; type: functional, organism-based
Plasmodium falciparum [21] = test: Antimalarial activity against Plasmodium falciparum after 48 hrs; type: functional, organism-based
Plasmodium falciparum [22] = test: Antimalarial activity against chloroquine-sensitive Plasmodium falciparum 3D7; type: functional, organism-based
[23] = Cytotoxicity against erythrocytes assessed as morphological changes; type: cell-based; settings: Erythrocyte
Plasmodium falciparum [24] = test: Antimalarial activity against Plasmodium falciparum infected in erythrocytes; type: functional, organism-based
Plasmodium falciparum [25] = test: Antimalarial activity against Plasmodium falciparum FCR3F86; type: functional, organism-based
Plasmodium falciparum [26] = test: Antimalarial activity against Plasmodium falciparum FCA; type: functional, organism-based
Plasmodium falciparum [27] = test: Antimalarial activity against chloroquine-sensitive Plasmodium falciparum D10; type: functional, organism-based

Structure (SMILES): CC(CCC1(O)C[C@@H]2C[C@H]3[C@@H]4CCC5=CC(=O)CC[C@]5(C)[C@H]4CC[C@]3(C)[C@H]2[C@@H]1C)CO[C@@H]1O[C@H](CO)[C@@H](O)[C@H](O)[C@H]1O (stereo not given in full)
- Activity (Plasmodium vivax): 39%

Structure (SMILES): CO[C@H]1C[C@@H]([C@@H](O)[C@@](C)(OC)[C@H](C)OC)O[C@]2(O[C@](C)([C@H]3CC[C@@H]([C@H]4CC[C@H]([C@H]5O[C@](C)(O)[C@H](C)[C@@H](O)[C@@H]5C)O4)O3)[C@H](OC)[C@H]2C)[C@H]1C
- IC50 (Plasmodium falciparum [1]): 0.1 µg/mL (≈ 0.145 µM)
- IC50 (Plasmodium falciparum [2]): 0.1 µg/mL (≈ 0.145 µM)

Structure (SMILES): C[C@H]1[C@@H](CC(COC(=O)c2cc[n+]([O-])cc2)C[C@H]2O[C@@H]3O[C@]4(C)CC[C@H]5[C@H](C)CC[C@@H]([C@H]2C)[C@@]35OO4)O[C@@H]2O[C@]3(C)CC[C@H]4[C@H](C)CC[C@@H]1[C@@]24OO3 (stereo not given in full)
- ED50 (Plasmodium falciparum [3]): 2 mg/kg
- ED50 (Plasmodium falciparum [4]): 0.8 mg/kg

Structure (SMILES): O=C(Oc1cc(O)cc2c1C[C@H](O)[C@@H](c1ccc(O)c(O)c1)O2)c1cc(O)c(O)c(O)c1
- IC50 (Plasmodium falciparum [5]): 1200 nM

Structure (SMILES): CC(CO)CCC(=O)[C@@H](C)[C@H]1[C@H](O)C[C@H]2[C@@H]3CCC4=CC(=O)CC[C@]4(C)[C@H]3CC[C@]12C (stereo not given in full)
- Activity (Plasmodium vivax): 47%

Structure (SMILES): COc1cc(/C=C2/Cc3c(OC(C)=O)cc(OC(C)=O)cc3O2)cc(OC)c1OC(C)=O
- IC50 (Plasmodium falciparum [8]): 7 nM
- IC50 (Plasmodium falciparum [9]): 180 nM

Structure (SMILES): Cc1c2c(cc3c1C(=O)C=C(C(C)C)C3=O)C(C)(C)CCC2 [12,16-DIDEOXY AEGYPTINONE B]
- IC50 (Plasmodium falciparum [12]): 1.4 µg/mL (≈ 4.72 µM)
- IC50 (Plasmodium falciparum [13]): 1.3 µg/mL (≈ 4.39 µM)

Structure (SMILES): O=C(O[C@H]1Cc2c(O)cc(O)cc2O[C@@H]1c1ccc(O)c(O)c1)c1cc(O)c(O)c(O)c1 [CATECHIN GALLATE]
- IC50 (Plasmodium falciparum [5]): 1000 nM

Structure (SMILES): CCCCCCCc1cc(/C=C2\N=C(c3ccc[nH]3)C=C2OC)[nH]c1C [HEPTYL PRODIGIOSIN]
- IC50 (Plasmodium falciparum [18]): 70 nM

Structure (SMILES): Cc1cc(=O)c(O)cc2c1C[C@H]1CC(C)(C)/C=C/C[C@@]3(C)Oc4cc(O)c(=O)cc(C)c4C[C@@H]3C[C@H](O)[C@]1(C)O2 [PYCNIDIONE]
- IC50 (Plasmodium falciparum [25]): 280 nM
- IC50 (Plasmodium falciparum [17]): 750 nM
- IC50 (Plasmodium falciparum [16]): 370 nM

The next lines start with results.

- IC50 [6]: 65300 nM
- IC50 [7]: 20 µg/mL (≈ 65.3 µM)
Structure (SMILES): C=C1C(=O)OC[C@H]1[C@@H](/C=C(\C)CC(=O)C=C(C)C)OC(C)=O

- IC50 (Plasmodium berghei): 2.1 nM
Structure (SMILES): COC(C)(C)[C@@H]1C=C2C(=O)[C@H]3O[C@H]3C3C=CC(C2C(=O)/C1=C/CO)[C@H]3O (stereo not given in full)
- ED50 (Plasmodium berghei): 5.2 mg/kg

- fold change (FC) [10]: 5
- inhibition (Plasmodium falciparum [11]): 25%
Structure (SMILES): C=C1C(=O)OC[C@H]1[C@H](O)/C=C(\C)CC(=O)C=C(C)C

- IC50 (Plasmodium falciparum [14]): 500 nM
- IC50 (Plasmodium falciparum [15]): 500 nM
- IC50 (Plasmodium falciparum [16]): 500 nM
Structure (SMILES): C=Cc1c[n+]2c(c(O)c1C[C@H]1c3[nH]c4ccccc4c3CCN1C)-c1[nH]c3c([C@H]4CCCN4C)c(O)ccc3c1CC2 [CHRYSOPENTAMINE]

- IC50 (Plasmodium falciparum [17]): 3.5 µg/mL
- IC50 (Plasmodium falciparum [16]): 4.2 µg/mL
Structure (SMILES): COc1cc(/C=C/C(=O)CC(=O)/C=C/c2ccc(O)c(OC)c2)ccc1O [CURCUMIN]

- IC50 (Plasmodium falciparum [19]): 14 µg/mL (≈ 30.5 µM)
- IC50 (Plasmodium falciparum [20]): 1.8 µg/mL (≈ 3.92 µM)
- IC50 (Plasmodium falciparum [21]): 26 µg/mL (≈ 56.7 µM)
Structure (SMILES): CC(C)=CCC/C(C)=C/CC/C(C)=C/CC[C@@]1(C)[C@H](CCCO)/C(=C(/C)C=O)CC[C@]1(C)O [IRIDAL]

- IC50 (Plasmodium falciparum [22]): > 100000 nM
Structure (SMILES): COc1cc(O)c2c(c1)O[C@H](c1ccccc1)CC2=O [PINOSTROBIN]

- IC50 (Plasmodium falciparum [24]): 25600 nM
Structure (SMILES): CC(C)c1ccc2c(c1)CC[C@H]1[C@](C)(CO)CCC[C@]21C [POMIFERIN A]
- IC50 [23]: 28000 nM

- IC50 (Plasmodium falciparum [26]): 0.33 µg/mL (≈ 0.947 µM)
Structure (SMILES): C=C1C(=O)O[C@@H]2/C=C(/C)C(=O)/C=C/[C@](C)(O)C[C@@H](OC(=O)C(C)C)[C@@H]12 [TAGITININ C]

- IC50 (Plasmodium falciparum [27]): 12300 nM
Structure (SMILES): COc1cc(O)cc2c1c(=O)c1ccccc1n2C [TEGERRARDIN A]

Reference: ChEMBL document CHEMBL1177693, “Antimalarials from nature” (Bioorg Med Chem, 2009)
